Source: ChEMBL document CHEMBL3885881, “DrugMatrix”

Organism: Rattus norvegicus
Type: toxicity, organism-based, Sprague-Dawley
Settings: in vivo, po, 24 h, route oral GAVAGE, time 1 day, […]; for ABSOLUTE BASOPHIL / ABSOLUTE EOSINOPHIL / ABSOLUTE LYMPHOCYTE / ABSOLUTE MONOCYTE / BASOPHIL / EOSINOPHIL / ERYTHROCYTE COUNT / HEMATOCRIT / HEMOGLOBIN / LEUKOCYTE COUNT / LYMPHOCYTE / MEAN CORPUSCULAR HEMOGLOBIN / MEAN CORPUSCULAR HEMOGLOBIN CONCENTRATION / MEAN CORPUSCULAR VOLUME / MONOCYTE / NEUTROPHIL / PLATELET COUNT: tissue Blood; for ALANINE AMINOTRANSFERASE / ALBUMIN / ALKALINE PHOSPHATASE / ASPARTATE AMINOTRANSFERASE / BLOOD UREA NITROGEN / CARBON DIOXIDE / CHLORIDE / CHOLESTEROL / CREATINE PHOSPHOKINASE / CREATININE / GLUCOSE / LACTATE DEHYDROGENASE / LIPASE / PHOSPHORUS / POTASSIUM / SODIUM / TOTAL BILIRUBIN / TOTAL PROTEIN / URIC ACID: tissue Plasma
[1] = 0 mg/kg, vehicle control, dose level Control

Description: DrugMatrix - Regimen: Single

Structure (SMILES): CC(CCc1ccc(O)cc1)NCCc1ccc(O)c(O)c1 (configuration not stated) [DOBUTAMINE]
- ABSOLUTE BASOPHIL [1]: 46.7 cells/µL
- ABSOLUTE EOSINOPHIL [1]: 130 cells/µL
- ABSOLUTE LYMPHOCYTE [1]: 8720 cells/µL
- ABSOLUTE MONOCYTE [1]: 140 cells/µL
- BASOPHIL [1]: 0.43%
- EOSINOPHIL [1]: 1.33%
- ERYTHROCYTE COUNT [1]: 6.45 x10E6/uL
- HEMATOCRIT [1]: 42.2%
- HEMOGLOBIN [1]: 13.33 G/DL
- LEUKOCYTE COUNT [1]: 10.59 x10E3/uL
- LYMPHOCYTE [1]: 82.13%
- MEAN CORPUSCULAR HEMOGLOBIN [1]: 20.67 pg
- MEAN CORPUSCULAR HEMOGLOBIN CONCENTRATION [1]: 31.6 G/DL
- MEAN CORPUSCULAR VOLUME [1]: 65.4 fL
- MONOCYTE [1]: 1.37%
- NEUTROPHIL [1]: 14.3%
- PLATELET COUNT [1]: 1048.67 x10E3/uL
- ALANINE AMINOTRANSFERASE [1]: 44 u/L
- ALBUMIN [1]: 3.93 G/DL
- ALKALINE PHOSPHATASE [1]: 551.33 u/L
- ASPARTATE AMINOTRANSFERASE [1]: 97 u/L
- BLOOD UREA NITROGEN [1]: 13.5 mg/dL
- CARBON DIOXIDE [1]: 37.33 mmol/L
- CHLORIDE [1]: 102.33 MEQ/L
- CHOLESTEROL [1]: 83 mg/dL
- CREATINE PHOSPHOKINASE [1]: 365.33 u/L
- CREATININE [1]: 0.4 mg/dL
- GLUCOSE [1]: 189 mg/dL
- LACTATE DEHYDROGENASE [1]: 170.33 u/L
- LIPASE [1]: 10.67 u/L
- PHOSPHORUS [1]: 11.53 mg/dL
- POTASSIUM [1]: 5.63 MEQ/L
- SODIUM [1]: 144.33 MEQ/L
- TOTAL BILIRUBIN [1]: 0.4 mg/dL
- TOTAL PROTEIN [1]: 6.27 G/DL
- URIC ACID [1]: 0.87 mg/dL
- ABSOLUTE BASOPHIL (15 mg/kg, dose level High): 16.7 cells/µL
- ABSOLUTE EOSINOPHIL (15 mg/kg, dose level High): 56.7 cells/µL
- ABSOLUTE LYMPHOCYTE (15 mg/kg, dose level High): 5150 cells/µL
- ABSOLUTE MONOCYTE (15 mg/kg, dose level High): 130 cells/µL
- BASOPHIL (15 mg/kg, dose level High): 0.23%
- EOSINOPHIL (15 mg/kg, dose level High): 1%
- ERYTHROCYTE COUNT (15 mg/kg, dose level High): 6.18 x10E6/uL
- HEMATOCRIT (15 mg/kg, dose level High): 41.87%
- HEMOGLOBIN (15 mg/kg, dose level High): 13.57 G/DL
- LEUKOCYTE COUNT (15 mg/kg, dose level High): 6.42 x10E3/uL
- LYMPHOCYTE (15 mg/kg, dose level High): 79.73%
- MEAN CORPUSCULAR HEMOGLOBIN (15 mg/kg, dose level High): 21.9 pg
- MEAN CORPUSCULAR HEMOGLOBIN CONCENTRATION (15 mg/kg, dose level High): 32.3 G/DL
- MEAN CORPUSCULAR VOLUME (15 mg/kg, dose level High): 67.7 fL
- MONOCYTE (15 mg/kg, dose level High): 2.1%
- NEUTROPHIL (15 mg/kg, dose level High): 16.6%
- PLATELET COUNT (15 mg/kg, dose level High): 1219 x10E3/uL
- ALANINE AMINOTRANSFERASE (15 mg/kg, dose level High): 48 u/L
- ALBUMIN (15 mg/kg, dose level High): 3.87 G/DL
- ALKALINE PHOSPHATASE (15 mg/kg, dose level High): 483.33 u/L
- ASPARTATE AMINOTRANSFERASE (15 mg/kg, dose level High): 106 u/L
- BLOOD UREA NITROGEN (15 mg/kg, dose level High): 13.67 mg/dL
- CARBON DIOXIDE (15 mg/kg, dose level High): 36.33 mmol/L
- CHLORIDE (15 mg/kg, dose level High): 105 MEQ/L
- CHOLESTEROL (15 mg/kg, dose level High): 67.33 mg/dL
- CREATINE PHOSPHOKINASE (15 mg/kg, dose level High): 728.67 u/L
- CREATININE (15 mg/kg, dose level High): 0.5 mg/dL
- GLUCOSE (15 mg/kg, dose level High): 182.33 mg/dL
- LACTATE DEHYDROGENASE (15 mg/kg, dose level High): 183.67 u/L
- LIPASE (15 mg/kg, dose level High): 13.67 u/L
- PHOSPHORUS (15 mg/kg, dose level High): 12.43 mg/dL
- POTASSIUM (15 mg/kg, dose level High): 5.77 MEQ/L
- SODIUM (15 mg/kg, dose level High): 145 MEQ/L
- TOTAL BILIRUBIN (15 mg/kg, dose level High): 0.33 mg/dL
- TOTAL PROTEIN (15 mg/kg, dose level High): 6.17 G/DL
- URIC ACID (15 mg/kg, dose level High): 1.47 mg/dL
